In patent US7829665B2 (priority 2005, dated 2010):
Where two headings read alike, the source gives them in different places.

Experiments:
[1] = tested on: HCV sub-genomic replicon in GS4.3 cells (HuH-7 hepatoma cells); experiment: Quantitation by ELISA of Neomycin phosphotransferase II (NPTII) in the HCV sub-genomic replicon, GS4.3; format: cell-based, hepatitis C virus; details: Hepatitis C virus, Huh-7
How it was run: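 Replicon-bearing HuH-7 (GS4.3) cells were exposed to compounds for 72 h in G418-free medium, top final concentration 10 μM, 1% DMSO. Lysates went to an NPTII ELISA read at 450 nm. Signal was normalised to DMSO-treated wells and EC50 was derived by four-parameter curve fitting.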

[2] = target: T1, full-length NS3/NS4A-2 (HCV NS3 protease) (Hepatitis C virus genotype 1a, UniProt P27958); experiment: NS3-NS4 protease assay / NS3 inhibition assay (RETS1 substrate, fluorescence kinetic read); format: biochemical
T1 construct: Recombinant E. coli or Baculovirus full-length NS3 was diluted to 3.33 μM with assay buffer; made in house; host or cells: E. coli or baculovirus (BV) expression system
How it was run: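 Ki values come from IC50 fits corrected via Ki=IC50/(1+[S]/Km), with Km 2.03 μM for E. coli and 1.74 μM for baculovirus full-length NS3. Enzyme (2 or 3 nM NS3, respectively, complexed with NS4A-2) sat with compound, top concentration 50 microM, for 10 min at room temperature. Cleavage of RETS1 (8 μM working solution) was then followed by fluorescence (335/495 nm) over 30 min.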

[3] = GS4.3 cells, 72 h incubation, NPTII ELISA, read-out: Replicon EC50
[4] = recombinant E. coli or Baculovirus full-length NS3 with NS4A-2, read-out: NS3-NS4 IC50

T1 sequence (P27958 1027-1657): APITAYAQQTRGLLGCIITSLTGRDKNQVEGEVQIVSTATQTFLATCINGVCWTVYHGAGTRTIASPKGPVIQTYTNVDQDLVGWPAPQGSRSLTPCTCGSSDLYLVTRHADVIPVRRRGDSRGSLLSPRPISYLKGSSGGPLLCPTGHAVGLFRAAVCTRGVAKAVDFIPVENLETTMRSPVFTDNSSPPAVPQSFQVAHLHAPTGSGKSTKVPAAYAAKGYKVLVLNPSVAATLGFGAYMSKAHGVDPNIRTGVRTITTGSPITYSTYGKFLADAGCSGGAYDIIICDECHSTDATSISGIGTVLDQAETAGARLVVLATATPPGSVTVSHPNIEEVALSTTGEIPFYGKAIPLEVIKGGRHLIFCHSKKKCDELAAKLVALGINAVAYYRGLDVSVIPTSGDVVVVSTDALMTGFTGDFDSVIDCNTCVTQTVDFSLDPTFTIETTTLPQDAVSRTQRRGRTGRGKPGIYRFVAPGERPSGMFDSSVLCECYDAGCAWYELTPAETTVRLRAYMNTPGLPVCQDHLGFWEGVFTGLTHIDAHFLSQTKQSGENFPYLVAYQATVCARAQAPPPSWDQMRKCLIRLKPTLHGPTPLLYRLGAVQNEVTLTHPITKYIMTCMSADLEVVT

Row | Structure (SMILES) | EC50 [1, 3] | IC50 [2, 4] | EC50 ([1]; Table 26, read-out: EC50) | IC50 [2]
1 | CC(C)(C)OC(=O)N[C@H]1CCCC(F)(F)C/C=C\[C@@H]2C[C@@]2(C(=O)NS(=O)(=O)C2CC2)NC(=O)[C@@H]2C[C@@H](OC(=O)N3Cc4cccc(F)c4C3)CN2C1=O [Compound 1008, (2R,6S,13aS,14aR,16aS,Z)-6-(tert-butoxycarbonylamino)-14a-(cyclopropylsulfonylcarbamoyl)-9,9-difluoro-5,16-dioxo-1,2,3,5,6,7,8,9,10,11,13a,14,14a,15,16,16a-hexadecahydrocyclopropa(e)prrolo[1,2-a][1,4]diazacyclopentadecine 2-yl 4-fluoroisoindoline-2-carboxylate] | < 100 nM | < 100 nM |  | 
2 | O=C(N[C@H]1CCCCC/C=C\[C@@H]2C[C@@]2(C(=O)NS(=O)(=O)c2cccs2)NC(=O)[C@@H]2C[C@@H](OC(=O)N3CCc4ccccc4C3)CN2C1=O)OC1CCCC1 [Compound 190] | < 100 nM | < 100 nM |  | 
3 | CC(C)(C)OC(=O)N[C@H]1CCCCC/C=C\[C@@H]2C[C@@]2(C(=O)NS(=O)(=O)C2CC2)NC(=O)C2Cc3cc(Oc4cccc(Cl)c4)ccc3CN2C1=O (stereo partly drawn) [Compound 2007, tert-Butyl (1aS,9S,19aR,Z)-15-(3-chlorophenoxy)-19a-(cyclopropylsulfonylcarbamoyl)-10,18-dioxo-1a,4,5,6,7,8,9,10,12,17,17a,18,19,19a-tetradecahydro-1H-11,14-diaza-bicyclo[13.1.0]hexadeca-1(15), 2-dieno[11,12-b]isoquinolin-9-ylcarbamate] | < 10000 nM | < 1000 nM |  | 
4 | O=C(N[C@H]1CCCCC/C=C\[C@@H]2C[C@@]2(C(=O)NS(=O)(=O)C2CCCC2)NC(=O)[C@@H]2C[C@@H](OC(=O)N3CCc4ccccc4C3)CN2C1=O)OC1CCCC1 [Compound 186] | < 1000 nM | < 100 nM |  | 
5 | O=C1N[C@]2(C(=O)NCC3CC3)C[C@H]2/C=C\CCCCC[C@H](NC2CCC2)C(=O)N2C[C@H](OC(=O)N3Cc4cccc(F)c4C3)C[C@@H]12 [Compound 624] | < 1000 nM | < 10000 nM |  | 
6 | CC(C)NS(=O)(=O)NC(=O)[C@@]12C[C@H]1/C=C\CCCCC[C@H](NC(=O)OC1CCCC1)C(=O)N1C[C@H](OC(=O)N3Cc4cccc(F)c4C3)C[C@H]1C(=O)N2 [Compound 218] | < 100 nM | < 100 nM |  | 
7 | O=C(N[C@H]1CCCCC/C=C\[C@@H]2C[C@@]2(C(=O)NCC2CC2)NC(=O)[C@@H]2C[C@@H](OC(=O)N3CCc4ccccc4C3)CN2C1=O)OC1CCCC1 [Compound 644] | < 1000 nM | < 100 nM |  | 
8 | O=C1N[C@]2(C(=O)NCC3CC3)C[C@H]2/C=C\CCCCC[C@H](NCc2ccc(F)c(F)c2)C(=O)N2C[C@H](OC(=O)N3Cc4cccc(F)c4C3)C[C@@H]12 [Compound 626] | < 10000 nM | < 1000 nM |  | 
9 | CC(C)(C)OC(=O)N[C@H]1CCCCC/C=C\[C@@H]2C[C@@]2(C(=O)Nc2nccs2)NC(=O)[C@@H]2C[C@@H](OC(=O)N3Cc4cccc(F)c4C3)CN2C1=O [Compound 614] | < 1000 nM | < 1000 nM |  | 
10 | C=CCC1(S(=O)(=O)NC(=O)[C@@]23C[C@H]2/C=C\CCCCC[C@H](NC(=O)OC(C)(C)C)C(=O)N2C[C@H](OC(=O)N4Cc5ccccc5C4)C[C@H]2C(=O)N3)CC1 [Compound 105] | < 100 nM | < 100 nM |  | 
11 | CC(C)(C)OC(=O)N[C@H]1CCCCC/C=C\[C@@H]2C[C@@]2(C(=O)NS(=O)(=O)NC2CCCC2)NC(=O)[C@@H]2C[C@@H](OC(=O)N3Cc4cccc(Cl)c4C3)CN2C1=O [Compound 212] | < 1000 nM | < 100 nM |  | 
12 | COc1ccc(CC(=O)N[C@H]2CCCCC/C=C\[C@@H]3C[C@@]3(C(=O)NS(=O)(=O)C3CC3)NC(=O)[C@@H]3CCCN3C2=O)cc1 [Compound 2138, (1S,4R,6S,14S)N—((Z)-4-Cyclopropanesulfonylaminocarbonyl-2,15-dioxo-3,16-diaza-tricyclo[14.3.0.0^4,6]nonadec-7-ene-14-yl)-2-(4-methoxy-phenyl)-acetamide] |  | > 10000 nM | < 1000 nM | 
13 | O=C(CCC(F)(F)F)N[C@H]1CCCCC/C=C\[C@@H]2C[C@@]2(C(=O)O)NC(=O)[C@@H]2C[C@@H](OC(=O)N3Cc4cccc(Cl)c4C3)CN2C1=O [Compound 142] | < 10000 nM | < 100 nM |  | 
14 | N[C@H]1CCC(F)(F)CC/C=C\[C@@H]2C[C@@]2(C(=O)NS(=O)(=O)C2CC2)NC(=O)[C@@H]2C[C@@H](OC(=O)N3Cc4ccccc4C3)CN2C1=O [Compound 1011] | < 1000 nM | < 100 nM |  | 
15 | CC(C)(C)OCC(=O)N[C@H]1CCCCC/C=C\[C@@H]2C[C@@]2(C(=O)NS(=O)(=O)C2CC2)NC(=O)[C@@H]2C[C@@H](OC(=O)N3Cc4cccc(Cl)c4C3)CN2C1=O [Compound 266] | < 100 nM | < 100 nM |  | 
16 | CC(C)(C)OC(=O)N[C@H]1CCCOCCC[C@@H]2C[C@@]2(C(=O)NS(=O)(=O)C2CC2)NC(=O)[C@@H]2C[C@@H](OC(=O)N3Cc4cccc(F)c4C3)CN2C1=O [Compound 1023, (2R,6S,13aR,14aR,16aS)-6-(tert-butoxycarbonylamino)-14a-(cyclopropylsulfonylcarbamoyl)-5,16-dioxohexadecahydro-1H-cyclopropa(e)pyrrolo[2,1-i][1,7,10]oxadiazacyclopentadecin-2-yl 4-fluoroisoindoline-2-carboxylate] | < 1000 nM |  |  | < 100 nM

Row | Structure (SMILES) | EC50 [1, 3] | IC50 [2, 4] | EC50 ([1]; Table 26, read-out: EC50) | IC50 [2]
17 | Cc1cccc(C)c1CN[C@H]1CCCCC/C=C\[C@@H]2C[C@@]2(C(=O)NS(=O)(=O)C2CC2)NC(=O)[C@@H]2C[C@@H](OC(=O)N3Cc4cccc(F)c4C3)CN2C1=O [Compound 918] | < 1000 nM | < 100 nM |  | 
18 | CC(C)(C)OC(=O)N[C@H]1CCCCC/C=C\[C@@H]2C[C@@]2(C(=O)NC(=O)C2CC2)NC(=O)[C@@H]2C[C@@H](OC(=O)N3Cc4ccccc4C3)CN2C1=O [Compound 701] | < 100 nM | < 100 nM |  | 
19 | Cc1ccc(CN[C@H]2CCCCC/C=C\[C@@H]3C[C@@]3(C(=O)NS(=O)(=O)C3CC3)NC(=O)[C@@H]3C[C@@H](OC(=O)N4Cc5cccc(F)c5C4)CN3C2=O)o1 [Compound 909] | < 100 nM | < 100 nM |  | 
20 | CC(C)(C)OC(=O)N[C@H]1CCCCC/C=C\[C@@H]2C[C@@]2(C(=O)NS(=O)(=O)C2CC2)NC(=O)[C@@H]2C[C@@H](OC(=O)N3CCc4cccc(F)c4C3)CN2C1=O [Compound 257] | < 100 nM | < 100 nM |  | 
21 | CN(C)C(=O)NC(=O)[C@@]12C[C@H]1/C=C\CCCCC[C@H](NC(=O)OC(C)(C)C)C(=O)N1C[C@H](OC(=O)N3Cc4cccc(F)c4C3)C[C@H]1C(=O)N2 [Compound 235] | < 100 nM | < 100 nM |  | 
22 | CC(C)(C)OC(=O)N[C@H]1CCCC/C=C\[C@@H]2C[C@@]2(C(=O)NS(=O)(=O)C2CC2)NC(=O)[C@@H]2C[C@@H](OC(=O)N3Cc4cccc(F)c4C3)CN2C1=O [Compound 267] | < 100 nM | < 100 nM |  | 
23 | O=C1N[C@]2(C(=O)NS(=O)(=O)C3CC3)C[C@H]2/C=C\CCCCC[C@H](NCc2ccc(F)c(F)c2)C(=O)N2C[C@H](OC(=O)N3Cc4cccc(F)c4C3)C[C@@H]12 [Compound 904] | < 100 nM | < 100 nM |  | 
24 | O=C1N[C@]2(C(=O)NS(=O)(=O)C3CC3)C[C@H]2/C=C\CCCCC[C@H](NCc2cccc(C(F)(F)F)c2)C(=O)N2C[C@H](OC(=O)N3Cc4cccc(F)c4C3)C[C@@H]12 [Compound 901, (1S,4R,6S,14S,18R)-14-(3-(trifluoromethyl)benzylamino)-4-(cyclopropanesulfonyl)aminocarbonyl-18-(4-fluoro-1,3-dihydro-isoindole-2-carbonyloxyl)-2,15-dioxo-3,16-diaza-tricyclo[14.3.0.0^4,6]nonadec-7-ene] | < 100 nM | < 100 nM |  | 
25 | O=C(N[C@H]1CCCCC/C=C\[C@@H]2C[C@@]2(C(=O)O)NC(=O)[C@@H]2C[C@@H](OC(=O)N3Cc4ccncc4C3)CN2C1=O)OC1CCCC1 [Compound 146] | > 10000 nM | < 100 nM |  | 
26 | N[C@H]1CCCCC/C=C\[C@@H]2C[C@@]2(C(=O)NS(=O)(=O)c2cccs2)NC(=O)[C@@H]2C[C@@H](OC(=O)N3Cc4cccc(Cl)c4C3)CN2C1=O [Compound 169] | < 10000 nM |  |  | < 100 nM
27 | Cc1ccccc1S(=O)(=O)NC(=O)[C@@]12C[C@H]1/C=C\CCCCC[C@H](NC(=O)OC(C)(C)C)C(=O)N1C[C@H](OC(=O)N3Cc4cccc(F)c4C3)C[C@H]1C(=O)N2 [Compound 157] | < 100 nM | < 100 nM |  | 
28 | CN(C)CCOc1ccc2c(c1)CN(C(=O)O[C@@H]1C[C@H]3C(=O)N[C@]4(C(=O)O)C[C@H]4/C=C\CCCCC[C@H](NC(=O)OC4CCCC4)C(=O)N3C1)C2 [Compound 133] | < 10000 nM | < 100 nM |  | 
29 | CC(C)(C)OC(=O)N[C@H]1CCCCC/C=C\[C@@H]2C[C@@]2(C(=O)O)NC(=O)[C@@H]2C[C@@H](OC(=O)Nc3nc4ccccc4s3)CN2C1=O [Compound 139] | > 10000 nM | < 1000 nM |  | 
30 | CN(C)C(=S)NC(=O)[C@@]12C[C@H]1/C=C\CCCCC[C@H](NC(=O)OC(C)(C)C)C(=O)N1C[C@H](OC(=O)N3Cc4cccc(F)c4C3)C[C@H]1C(=O)N2 [Compound 236] | < 100 nM | < 100 nM |  | 
31 | CC(C)(C)OC(=O)N[C@H]1CCCCC/C=C\[C@@H]2C[C@@]2(C(=O)O)NC(=O)[C@@H]2C[C@@H](OC(=O)N3Cc4ccc(N5CCOCC5)cc4C3)CN2C1=O [Compound 176] | > 10000 nM | < 100 nM |  | 
